For data set [1], the system named is lower density lipoproteins (LDL+VLDL). Nature of the data set: Inhibition of cupric ion oxidation of lower density lipoproteins (quality of antioxidant activity). The note with it: 6 hours.
Data set [2] can be described thus: Stability of CoQ10 in a 50° C. oven open to the air (HPLC). It is filed as physicochemical. The note with it: for Loss of CoQ10 after 36 days at 50° C. (equivalent to 3 months at room temperature) / Loss of CoQ10 after 72 days at 50° C. (equivalent to 6 months at room temperature): open to the air. The procedure: 100 mg of USP CoQ10 (Sigma) and a composition from Example 1 was placed in a 10 ml beaker in a 50° C. oven open to the air. The amount of CoQ10 remaining was analyzed by HPLC using a C18 column (Perkin Elmer Pecosil 5, 15 cm) and a solvent of 75% methanol and 25% isopropanol.

This note sets out measurements from patent US7138113B2, “Glycoprotein matrix compositions and methods related thereto” (Pharmachem Laboratories, Inc., priority 2001, dated 2006).

In general, IC50 refers to the concentration at which inhibition is half-maximal. The low end stands for higher potency, the high end for lower potency.

Molecule `COC1=C(OC)C(=O)C(C/C=C(\C)CC/C=C(\C)CC/C=C(\C)CC/C=C(\C)CC/C=C(\C)CC/C=C(\C)CC/C=C(\C)CC/C=C(\C)CC/C=C(\C)CCC=C(C)C)=C(C)C1=O` [CoQ10 (USP), CoEnzyme Q10] returned an IC50 in data set [1] (LDL+VLDL oxidation, 25 μM cupric ion, 37° C., based on CoQ10 conc.) of 1.33 µM. In data set [2] (0 days), the “Loss of CoQ10 at 0 days” value was found to be 0%. Besides, the “Loss of CoQ10 after 36 days at 50° C. (equivalent to 3 months at room temperature)” value in data set [2] (listed as USP CoQ10) and in data set [2] (listed as commercial CoQ10) was 6.8% throughout. Moreover, the “Loss of CoQ10 after 72 days at 50° C. (equivalent to 6 months at room temperature)” value in data set [2] (listed as USP CoQ10) and in data set [2] (listed as commercial sample) was 16.8% throughout.

For the molecule `C[Se]CC[C@H](N)C(=O)O` [Selenomethionine], in data set [1] (concentration of selenium to inhibit LDL+VLDL oxidation 50%, cupric ion), the IC50 is 27 µM.
